According to patent US9957270B2, “Fused pyrimidine-based hydroxamate derivatives” (Agency for Science, Technology and Research, priority 2014, dated 2018):

Key:
[1] = test system: PLC/PRF/5; assay: cells; conditions: Homo sapiens, PLC-PRF-5, read-out: In Vitro Cellular IC50 PLC/PRF/5
Procedure: (§3) Cells were cultivated at 37° C., 5% CO2 in media containing 10% FBS and 2 mM glutamine Cells were routinely monitored with MycoAlert™ PLUS Mycoplasma Detection Kit (Lonza Walkersville, Inc.) to make sure they were mycoplasma free. Antibiotics (100 U/mL of penicillin and 100 μg/mL of streptomycin) were only added to the media used for compound dilution and cells in 96-well assay plates.
(§4) For a typical screening experiment, cells (100 μL/well) are inoculated into 96 well microtiter plates at plating densities ranging from 2,000 to 30,000 cells/well depending on the doubling time of individual cell lines and assay linearity. […] Suspension cells are treated with test compounds immediately after cell inoculation.
(§5) Test compounds are serially diluted (3-fold or 4-fold, 8-concentration) using the same media and added to the plates (15 to 25 μL/well). After 72 h of cultivation, the plates are assayed for cell cytotoxicity/viability by using the following two methods.
(§6) Cells in plates are fixed with cold trichloroacetic acid (TCA) (50% w/v in DI water, 1/4 volume of the medium in each well), and incubated at 4° C. for 1 h (adherent cells) or 2 h (suspension cells). The plates are washed 5 times (tap water×3, DI water×2) and air-dried. SRB solution 0.4% (w/v) in 1% acetic acid is added to each well (60 μL/well) and the plates are incubated at room temperature for 30 min, then washed with 1% acetic acid solution 4 times, and air-dried.
(§7) The plates are added CellTiter-Glo® Reagent (95 μL/well) and read the luminescence on a BioTek H4 reader per manufacture's protocol.
(§8) The raw data are processed using BioTek's Software Gen5 (v2.03.01) to generate inhibitory IC50 values.

[2] = test system: Raji; assay: Anti-proliferative assay (cellular IC50), Raji; conditions: Homo sapiens, read-out: In Vitro Cellular IC50 Raji
Procedure: as §3, §4, §5, §6, §7, §8

[3] = test system: Daudi; assay: Anti-proliferative assay (cellular IC50), Daudi; conditions: Homo sapiens, read-out: In Vitro Cellular IC50 Daudi
Procedure: as §3, §4, §5, §6, §7, §8

[4] = test system: MV-4-11 cells; assay: Cell viability/cytotoxicity assay (CytoTox-Glo), MV-4-11 cells; format: cell-based, human; conditions: MV-4-11 cells, 48 h, CytoTox-Glo, read-out: cell death potency EC50
Procedure: Cells are cultivated and treated with test compounds in 96-well plates as described in the above Cell Culture and Anti-Proliferative Assays section, the content of dead cells and viable cells are measured using CytoTox-Glo™ Cytotoxicity Assay kit (Promega) per manufacture's protocol. Briefly, CytoTox-Glo™ Cytotoxicity Assay Reagent (48 μL/well) is added to the cells in 96-well plate and the luminescent signals are recorded using a BioTek Synergy H4 reader, then Lysis Reagent (48 μL/well) is added and the luminescent signals derived from both dead and viable cells are recorded. Viability can be calculated by subtracting the luminescent signal resulting from experimental cell death from total luminescent values. Staurosporine is used as positive control.
Fold of cell death of treated vs untreated was monitored at different time points. […] Y Axis is expressed as Mean±SD if applicable.

[5] = test system: HuH-7; assay: Anti-proliferative assay (cellular IC50), HuH-7; conditions: Homo sapiens, Huh-7, read-out: In Vitro Cellular IC50 HuH-7
Procedure: as §3, §4, §5, §6, §7, §8

[6] = test system: PC-3 cells; assay: Caspase activity assay, PC-3 cells; format: cell-based, human; conditions: maximal caspase activity at 48 h
Procedure: (§1) Cells are cultivated and treated with test compounds in 96-well plates as described in the above Cell Culture and Anti-Proliferative Assays section. […] The incubation time can be extended up to overnight (18 h) if the Caspase activity is low. Staurosporine is used as positive control.
(§2) Y Axis is expressed as Mean±SD if applicable.

[7] = test system: U138MG; assay: Anti-proliferative assay (cellular IC50), U138MG; conditions: Homo sapiens, U138-MG, read-out: In Vitro Cellular IC50 U138MG
Procedure: as §3, §4, §5, §6, §7, §8

[8] = test system: MV-4-11 cells; assay: Caspase activity assay, MV-4-11 cells; format: cell-based, human; conditions: MV-4-11 cells; for EC50: maximal activity at 24 h, read-out: EC50 induction of caspase activity
Procedure: as §1, §2

[9] = test system: A-431; assay: Anti-proliferative assay (cellular IC50), A-431; conditions: Homo sapiens, A-431, read-out: In Vitro Cellular IC50 A-431
Procedure: as §3, §4, §5, §6, §7, §8

[10] = test system: A549; assay: Anti-proliferative assay (cellular IC50), A549; conditions: Homo sapiens, A549, read-out: In Vitro Cellular IC50 A549
Procedure: as §3, §4, §5, §6, §7, §8

[11] = test system: NCI-H460; assay: Anti-proliferative assay (cellular IC50), NCI-H460; conditions: Homo sapiens, NCI-H460, read-out: In Vitro Cellular IC50 NCI-H460
Procedure: as §3, §4, §5, §6, §7, §8

[12] = test system: HCCLM3; assay: Anti-proliferative assay (cellular IC50), HCCLM3; conditions: Homo sapiens, HCCLM3, read-out: In Vitro Cellular IC50 HCCLM3
Procedure: as §3, §4, §5, §6, §7, §8

[13] = molecular target: HDAC (HeLa nuclear extracts); assay: HDAC enzyme assay, HeLa nuclear extracts; conditions: read-out: In Vitro Enzymatic IC50 HDAC (HeLa)
[14] = molecular target: HDAC1 (Homo sapiens, UniProt Q13547); assay: HDAC enzyme assay, recombinant HDAC1
HDAC1, sequence (Q13547 whole entry): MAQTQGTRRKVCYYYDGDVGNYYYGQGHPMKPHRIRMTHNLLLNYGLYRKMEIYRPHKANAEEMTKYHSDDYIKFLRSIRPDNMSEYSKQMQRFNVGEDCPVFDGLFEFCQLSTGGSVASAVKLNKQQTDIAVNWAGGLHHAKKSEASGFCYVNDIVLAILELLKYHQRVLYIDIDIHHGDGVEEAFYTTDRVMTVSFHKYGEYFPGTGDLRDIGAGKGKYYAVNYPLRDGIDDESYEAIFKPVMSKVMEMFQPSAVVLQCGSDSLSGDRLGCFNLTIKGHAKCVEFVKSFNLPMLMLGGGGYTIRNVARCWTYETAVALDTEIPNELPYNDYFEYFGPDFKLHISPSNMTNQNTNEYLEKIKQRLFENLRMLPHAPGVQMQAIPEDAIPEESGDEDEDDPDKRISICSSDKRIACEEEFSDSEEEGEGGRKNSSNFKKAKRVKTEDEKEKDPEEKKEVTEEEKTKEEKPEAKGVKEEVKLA

[15] = molecular target: T1, HDAC6 (Homo sapiens, UniProt Q9UBN7); assay: HDAC enzyme assay, recombinant HDAC6
T1 sequence (Q9UBN7 1-1215): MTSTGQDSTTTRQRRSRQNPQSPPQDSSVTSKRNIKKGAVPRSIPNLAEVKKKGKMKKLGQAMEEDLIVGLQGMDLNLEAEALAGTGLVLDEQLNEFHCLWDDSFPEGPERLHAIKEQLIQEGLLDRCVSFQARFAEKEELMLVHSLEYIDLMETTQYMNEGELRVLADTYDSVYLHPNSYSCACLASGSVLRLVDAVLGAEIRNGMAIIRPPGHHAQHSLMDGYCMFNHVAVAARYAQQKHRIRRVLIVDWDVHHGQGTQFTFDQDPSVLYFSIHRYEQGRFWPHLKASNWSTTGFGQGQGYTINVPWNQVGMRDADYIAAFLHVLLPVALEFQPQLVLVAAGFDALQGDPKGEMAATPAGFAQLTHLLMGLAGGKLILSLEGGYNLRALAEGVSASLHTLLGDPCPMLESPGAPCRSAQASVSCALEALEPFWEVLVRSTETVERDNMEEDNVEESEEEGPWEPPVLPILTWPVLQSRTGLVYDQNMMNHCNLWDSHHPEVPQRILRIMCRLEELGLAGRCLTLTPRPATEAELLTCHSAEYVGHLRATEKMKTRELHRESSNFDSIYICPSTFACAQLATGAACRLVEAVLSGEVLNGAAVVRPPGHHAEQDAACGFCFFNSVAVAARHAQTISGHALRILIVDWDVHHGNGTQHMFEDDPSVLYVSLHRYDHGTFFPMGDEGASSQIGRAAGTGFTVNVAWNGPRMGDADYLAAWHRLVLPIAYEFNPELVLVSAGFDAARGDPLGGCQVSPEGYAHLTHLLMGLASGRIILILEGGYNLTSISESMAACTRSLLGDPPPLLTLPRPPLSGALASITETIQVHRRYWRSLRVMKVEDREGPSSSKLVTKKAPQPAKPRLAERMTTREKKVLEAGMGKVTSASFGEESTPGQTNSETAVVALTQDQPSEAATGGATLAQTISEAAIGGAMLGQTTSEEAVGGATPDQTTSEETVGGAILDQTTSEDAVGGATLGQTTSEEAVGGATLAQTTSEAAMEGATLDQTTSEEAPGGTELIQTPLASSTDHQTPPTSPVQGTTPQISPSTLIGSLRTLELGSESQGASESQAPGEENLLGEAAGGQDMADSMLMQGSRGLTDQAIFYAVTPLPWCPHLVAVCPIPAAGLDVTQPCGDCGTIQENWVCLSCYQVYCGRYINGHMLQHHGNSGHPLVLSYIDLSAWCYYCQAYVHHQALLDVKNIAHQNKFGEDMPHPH

[16] = molecular target: T2, p110α(E545K)/p85α (Homo sapiens, UniProt P42336, E545K); assay: Kinase enzyme assay (ADP-Glo), PI3Kα (E545K); format: biochemical; conditions: read-out: In Vitro Enzymatic IC50 PI3Kα (E545K)
T2 construct: purchased SignalChem P27-15H
T2 sequence (P42336 whole entry E545K): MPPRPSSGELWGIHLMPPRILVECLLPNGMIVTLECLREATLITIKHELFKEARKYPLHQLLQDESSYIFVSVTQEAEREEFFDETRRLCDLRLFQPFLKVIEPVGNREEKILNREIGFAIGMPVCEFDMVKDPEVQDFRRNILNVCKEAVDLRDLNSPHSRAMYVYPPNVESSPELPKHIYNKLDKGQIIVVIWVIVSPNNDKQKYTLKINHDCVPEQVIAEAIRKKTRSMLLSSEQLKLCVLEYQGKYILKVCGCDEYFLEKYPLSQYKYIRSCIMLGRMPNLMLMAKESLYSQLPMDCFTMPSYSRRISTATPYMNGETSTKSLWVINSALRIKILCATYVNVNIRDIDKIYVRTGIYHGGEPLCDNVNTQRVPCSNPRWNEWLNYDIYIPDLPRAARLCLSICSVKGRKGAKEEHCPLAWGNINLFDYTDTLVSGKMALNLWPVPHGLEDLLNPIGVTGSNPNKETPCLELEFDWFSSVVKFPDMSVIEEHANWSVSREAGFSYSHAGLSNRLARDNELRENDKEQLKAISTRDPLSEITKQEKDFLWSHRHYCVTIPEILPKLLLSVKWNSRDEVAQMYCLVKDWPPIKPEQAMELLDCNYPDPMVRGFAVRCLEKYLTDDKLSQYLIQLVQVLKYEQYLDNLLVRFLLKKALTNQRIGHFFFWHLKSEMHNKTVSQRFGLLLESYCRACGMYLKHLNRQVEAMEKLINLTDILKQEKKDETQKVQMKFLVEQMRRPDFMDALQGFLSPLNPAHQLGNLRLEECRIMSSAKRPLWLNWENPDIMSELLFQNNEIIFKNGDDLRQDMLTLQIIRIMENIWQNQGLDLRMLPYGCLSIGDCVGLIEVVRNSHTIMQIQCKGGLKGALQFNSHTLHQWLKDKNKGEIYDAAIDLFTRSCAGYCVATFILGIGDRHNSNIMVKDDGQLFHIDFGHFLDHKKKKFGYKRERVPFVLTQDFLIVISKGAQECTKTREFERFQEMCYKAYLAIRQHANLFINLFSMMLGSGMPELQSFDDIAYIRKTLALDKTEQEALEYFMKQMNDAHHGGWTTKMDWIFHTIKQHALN
T2 sequence (P27986 whole entry partner): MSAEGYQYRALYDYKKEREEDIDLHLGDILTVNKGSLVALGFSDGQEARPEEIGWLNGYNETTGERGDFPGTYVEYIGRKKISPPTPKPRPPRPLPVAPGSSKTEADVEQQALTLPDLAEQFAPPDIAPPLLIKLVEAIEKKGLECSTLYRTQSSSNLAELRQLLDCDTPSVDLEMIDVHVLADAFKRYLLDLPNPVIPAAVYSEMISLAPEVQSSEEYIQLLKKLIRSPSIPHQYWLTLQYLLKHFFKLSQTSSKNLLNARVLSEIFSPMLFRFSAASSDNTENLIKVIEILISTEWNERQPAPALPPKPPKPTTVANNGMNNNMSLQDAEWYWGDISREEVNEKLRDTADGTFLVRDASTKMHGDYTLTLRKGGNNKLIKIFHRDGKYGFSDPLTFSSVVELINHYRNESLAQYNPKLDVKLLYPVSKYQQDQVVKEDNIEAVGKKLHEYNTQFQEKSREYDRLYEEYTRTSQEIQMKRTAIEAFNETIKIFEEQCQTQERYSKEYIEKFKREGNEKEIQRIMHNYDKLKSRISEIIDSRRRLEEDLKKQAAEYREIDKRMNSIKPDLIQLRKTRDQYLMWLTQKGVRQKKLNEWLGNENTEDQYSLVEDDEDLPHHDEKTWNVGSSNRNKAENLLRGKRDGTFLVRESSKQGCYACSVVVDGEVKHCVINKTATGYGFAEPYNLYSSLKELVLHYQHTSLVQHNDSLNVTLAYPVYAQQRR

IC50 [1] [nM]	IC50 [2] [nM]	IC50 [3] [nM]	IC50 [5] [nM]	EC50 ([8]; Homo sapiens, MV4-11) [nM]	IC50 [9] [nM]	IC50 [10] [nM]	IC50 [11] [nM]	IC50 [12] [nM]	IC50 [13] [nM]	IC50 [14] [nM]	EC50 [8] [nM]	IC50 [15] [nM]	IC50 [16] [nM]	SMILES	EC50 ([4]; Homo sapiens, MV4-11) [nM]	Induction of caspase activity (comparison) [6]	IC50 [7] [nM]	Induction of caspase activity (comparison) [8]	EC50 [4] [nM]
2000 to 10000	2000 to 10000	< 500	500 to 2000	12700	< 500	< 500	< 500	500 to 2000	–	–	–	–	–	CS(=O)(=O)N1CCN(Cc2cc3nc(-c4cccc5[nH]ncc45)nc(N4CCOCC4)c3s2)CC1 [GDC-0941, reference compound]	2750	very weak activity	500 to 2000	very weak activity and potency	–
500 to 2000	500 to 2000	< 500	500 to 2000	–	2000 to 10000	500 to 2000	500 to 2000	2000 to 10000	10 to 100	10 to 100	520	10 to 100	1000 to 10000	CC(C)n1cnc2c(-c3cccc(OCCCC(=O)NO)c3)nc(N3CCOCC3)nc21 [compound 1]	–	more potent than vorinostat	500 to 2000	more potent than vorinostat	190
–	–	–	–	–	–	–	–	–	100 to 1000	10 to 100	–	10 to 100	10 to 100	CCn1c(CN(C)Cc2ccc(C(=O)NO)cc2)nc2c(N3CCOCC3)nc(-c3cnc(N)nc3)nc21 [compound 7]	–	–	–	–	–
